A word on the EC50: it is the concentration needed to bring the measured effect to its halfway point. Lower therefore signals greater potency. As usually defined, the IC50 is the point on the concentration scale where inhibition reaches its midpoint. Lower therefore signals greater potency.

Data on ten molecules can be found in PMC4263610, “Derivation of ligands for the complement C3a receptor from the C-terminus of C5a” (European Journal of Pharmacology, 2014).

Ends that are not written are not given here.

For experiment [1], the target named is T1, human monocyte-derived macrophages (HMDM) (Homo sapiens, UniProt Q16581).
T1 sequence (Q16581 1-482): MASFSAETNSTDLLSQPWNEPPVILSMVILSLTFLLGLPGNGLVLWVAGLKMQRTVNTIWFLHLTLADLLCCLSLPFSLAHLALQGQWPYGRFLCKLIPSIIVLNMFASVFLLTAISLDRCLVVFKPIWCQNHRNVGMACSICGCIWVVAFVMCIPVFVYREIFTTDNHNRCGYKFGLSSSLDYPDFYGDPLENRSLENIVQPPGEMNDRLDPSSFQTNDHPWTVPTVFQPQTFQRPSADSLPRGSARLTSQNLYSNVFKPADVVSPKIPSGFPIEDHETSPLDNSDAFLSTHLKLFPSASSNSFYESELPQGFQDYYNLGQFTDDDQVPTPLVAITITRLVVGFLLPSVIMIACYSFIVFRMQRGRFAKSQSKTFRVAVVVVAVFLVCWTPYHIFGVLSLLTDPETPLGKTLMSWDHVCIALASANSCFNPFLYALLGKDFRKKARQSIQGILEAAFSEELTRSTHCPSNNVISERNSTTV
The experiment is described as follows: xCELLigence cell impedance assay, agonist activity on HMDM. The format is cell-based. Conditions: for response in initial single dose screen: single dose of 8 μM, n=4–6, hit = P<0.001; for EC50: xCELLigence impedance, dose-response, serum-free IMDM, 37 °C, n=3–5; for xCELLigence response profile: C3a and C5a at 100 nM. How it is done: Human monocytes were isolated from blood donations to the Australian Red Cross Blood Service (Kelvin Grove, Queensland). The isolation of mononuclear cells was as described previously by [Halai and Cooper (2012)]. Briefly, the mononuclear cell layer was separated using density gradient centrifugation with Ficoll-Paque Plus (GE Healthcare). MACS magnetic beads (Miltenyi Biotec) were incubated with the cells for 15 min at 4 °C before passing through an LS column (Miltenyi Biotec) to select for the CD14+ cells. Selected monocytes were plated at a density of 1.5×10^7 in Iscove׳s Modified Dulbecco׳s Medium (IMDM) (Invitrogen Life Technologies) containing L-glutamine supplemented with 10% Fetal Bovine Serum (FBS), 50 IU/ml penicillin and 50 μg/ml streptomycin. Human macrophage colony-stimulating factor (M-CSF) (Peprotech) was added to media to allow cells to differentiate into human monocyte-derived macrophages (HMDM). Over the 7 day differentiation process, cells were incubated at 37 °C and 5% CO2.
(§1) HMDM were seeded overnight at 30,000 cells/well in 384-well E-Plates (Roche). Approximately 24 h later, HMDM media were exchanged for serum-free IMDM and equilibrated at 37 °C and 5% CO2 for 2 h prior to ligand addition. Ligands were prepared at a final DMSO concentration of 0.5% (or less) in serum-free IMDM. […] After agonist addition, measurements were taken continuously for ~1.5 h at 37 °C. The RTCA software was used for data analysis, with statistical analysis using GraphPad Prism 5.0c (GraphPAD Software Inc., San Diego, CA).

In a further experiment the target is C3a receptor (Homo sapiens, UniProt Q16581). Kind of experiment: xCELLigence, antagonism of peptide-evoked response by C3a receptor antagonist SB 290157 in HMDM. The format is cell-based. The conditions noted are these: n=3–5. How it is done:
as §1

The target of a further experiment is T2, human C3a receptor (Homo sapiens, UniProt Q16581).
T2 construct: expressed in transfected cells; host or cells: RBL-2H3 (rat basophilic leukemia) cells
T2 sequence (Q16581 1-482): T1 sequence (Q16581 1-482)
Kind of experiment: RBL-2H3 degranulation assay (β-hexosaminidase), agonist, human C3a receptor. The format is cell-based. Conditions: RBL-2H3 transfected with human C3a receptor, 100 µM peptide (Fig. 3 legend: 50 μM), 15 min, β-hexosaminidase secretion, relative to FLPLAR. How it is done: RBL-2H3 cells transfected with either human C5a1 or human C3a receptor ([Cain and Monk, 2002]) were routinely cultured in Dulbecco׳s Modified Eagle׳s Medium, 10% (v/v) fetal calf serum, and 400 mg/l G-418 at 37 °C in 5% CO2. Degranulation was measured by assaying for β-hexosaminidase activity in the cell supernatant, as described previously ([Monk et al., 1994]). In agonist assays, degranulation was calculated as a percentage of maximal activity in response to 200 nM recombinant human C3a, human C5a ([Cain and Monk, 2002]), or 10 nM agonist hexapeptide, FLPLAR ([Scully et al., 2010]). […]
RBL-2H3 cells transfected with either human C5a1 or human C3a receptor ([Cain and Monk, 2002]) were used to confirm hits detected in HMDM, using degranulation as a read-out ([Monk et al., 1994]). In cells transfected with C5a1, very weak agonist activity was detected in two groups of peptides, although even at 100 µM (the maximal dose achievable in the presence of the DMSO, which has adverse effects >1%), the activation obtained was 5–10% of the maximum activation achieved by a high dose of C5a (Fig. 3, top panel). […]
Fig. 3 Agonist activity of peptides at human C5a1 and C3a receptors expressed in rat basophilic leukemia cells (RBL-2H3). […] Degranulation was measured as the secretion of β-hexosaminidase. […]

A further experiment concerns C5a receptors. The conditions noted are these: ref Taylor and Fairlie, 2005; cited from earlier work. The text has this: C3a receptor/C5a1 promiscuity is not unusual and has been previously observed for whole C3a and a synthetic peptide agonist ([Ames et al., 1996]) and a chimeric C5a with the C3a C-terminal pentapeptide ([Bautsch et al., 1992]). In fact, early efforts to create potent and selective antagonists of C5a1 led to only partial agonists ([Taylor and Fairlie, 2005]).

For the molecule Ac-TLLRLWR [Peptide 48], the “outcome of full dose range retest” value in experiment [1] (xCELLigence, full dose range) is listed as “a full dose response could not be obtained”. In addition, the “response in initial single dose screen” value in experiment [1] (xCELLigence) is “significant hits”.

Ac-TIYRLWR [Peptide 49, Ac-TIYRLWR]: the EC50 in experiment [1] stood at 17 µM.

For the molecule `N=C(N)NCCC[C@H](NC(=O)COCC(c1ccccc1)c1ccccc1)C(=O)O` [SB 290157], the IC50 at C3a receptor (agonist peptide 20 at about its EC50, antagonist pre-incubated 1 h) was found to be 0.0013 µM; at C3a receptor (agonist peptide 31 at about its EC50, antagonist pre-incubated 1 h), 0.067 µM; at C3a receptor (agonist peptide 47 at about its EC50, antagonist pre-incubated 1 h) it was 0.044 µM; at C3a receptor (agonist peptide 49 at about its EC50, antagonist pre-incubated 1 h), 0.015 µM; on C3a receptor (agonist peptide 54 at about its EC50, antagonist pre-incubated 1 h), 0.029 µM.

In experiment [1], Ac-RLYPLWR-OH [Peptide 47, Ac-RLYPLWR] yielded an EC50 of 1.2 µM. The “response in initial single dose screen” value in experiment [1] (xCELLigence) is reported as “significant hits”.

Ac-RHYPLWR-OH [Peptide 31, Ac-RHYPLWR] had an EC50 in experiment [1] of 1.1 µM. The “response in initial single dose screen” value in experiment [1] (xCELLigence) was “significant hits”. Also, on human C3a receptor, the “activation of C3a receptor (degranulation)” value is “very strong activation”.

Ac-NNYNLWR-OH [Peptide 20, Ac-NNYNLWR]: a half-maximal response in experiment [1] (EC50) required 5.8 µM. For the same molecule, the “response in initial single dose screen” value in experiment [1] (xCELLigence) is “significant hits”.

Consider Ac-RYPLWR-OH [Peptide 54, Ac-RYPLWR], for which the EC50 in experiment [1] turned out to be 3 µM. The “response in initial single dose screen” value in experiment [1] (xCELLigence) was “significant hits”. For the same molecule, the “activation of C3a receptor (degranulation)” value at human C3a receptor was “very strong activation”.

Take “C3a: complement fragment C3a, 77-residue protein, recombinant human [Peptide C3a]”: in experiment [1], the xCELLigence response profile entry was “single peak profile”. Moreover, in experiment [1] (xCELLigence), the “cell index (intensity of the signal)” value came out at 1.98 and the “time of signal peak after addition” value was ~ 1 min.

For “AcPhe[Lornithine-Pro-D-cyclohexylalanine-Trp-Arg] (sidechain bridge or staple) [PMX53, cyclic C5a1 antagonist]”, the receptor affinity result in the experiment with C5a receptors is reported as “low nanomolar range”.

B1: C5a: complement fragment C5a, 74-residue protein, human (protein, UniProt P01031 678-751, looked up)
C5a anaphylatoxin: TLQKKIEEIAAKYKHSVVKKCCYDGACVNNDETCEQRAARISLGPRCIKAFTECCVVASQLRANISHKDMQLGR
modifications: C5a anaphylatoxin
notes: complement fragment C5a, 74-residue protein, human
Regarding B1, the xCELLigence response profile result in experiment [1] is “two-peak profile”. Also, in experiment [1] (xCELLigence), the “cell index (intensity of the signal)” value is on record as 4.53 and the “time of signal peak after addition” value is recorded as ~ 4 min.
